The record followed here is US5780620A, “Non-reducing oligosaccharides and their production and use” (Kabushiki Kaisha Hayashibara Seibutsu Kagaku Kenkyujo, priority 1993, dated 1998).

≈ marks a conversion by molar mass, not a printed value. Where only a bound is given, the exact number is not on record here.

Data set [1] is described as follows: Reducing power by the Somogyi-Nelson method. It counts as physicochemical. The method, then: Thereafter these high-purity saccharide preparations were tested for reducing power with the Somogyi-Nelson method and their reducing powers were represented in terms of DE.
A short description of data set [2]: Acute toxicity in mice upon oral administration. Conditions: mouse, in vivo, acute. It counts as in vivo. The method, then: (§1) High-purity maltosyl maltoside, maltotriosyl maltoside and maltotriosyl maltotrioside prepared by the method in Experiment B-1 were tested for acute toxicity in mice upon oral administration.
Another data set concerns mice. Put plainly: Acute toxicity in mice upon oral administration. The following applies: for death: maximum administrable dose. It is filed as in vivo. How it is done: as §1
Data set [3] in a line: Hygroscopicity of crystalline maltotriosyl maltotrioside. It is filed as physicochemical. The following applies: varies depending on purity.
Data set [4] is described as follows: Solubility of crystals in water. It counts as physicochemical. Conditions: purity 99.0%, 25° C. water. The method, then:
An alpha-D-maltotriosyl alpha-D-maltotrioside (Substance 3), purity of 97% or higher, prepared by the method in Experiment B-1, was decolored, deionized and concentrated to 70% in usual manner and the concentrate was transferred in a beaker and allowed to stand in 4° C. chilled room for 2 months leading to eduction of crystals. The crystals were centrifugally collected and washed with a minimum amount of water, thus obtaining crystals with a purity of 99.0%.
The physicochemical properties of the crystals as tested were as follows:
Relatively high, about 91 g being soluble in 100 ml of 25° C. water.

Turning to `OC[C@H]1O[C@H](O[C@H]2O[C@H](CO)[C@@H](O[C@H]3O[C@H](CO)[C@@H](O)[C@H](O)[C@H]3O)[C@H](O)[C@H]2O)[C@H](O)[C@@H](O)[C@@H]1O` [PI, alpha-glucosyl trehalose], in data set [1], the “DE (reducing power)” value came to 0.83.

With `OC[C@H]1O[C@H](O[C@H]2O[C@H](CO)[C@@H](O[C@H]3O[C@H](CO)[C@@H](O[C@H]4O[C@H](CO)[C@@H](O)[C@H](O)[C@H]4O)[C@H](O)[C@H]3O)[C@H](O)[C@H]2O)[C@H](O)[C@@H](O)[C@@H]1O` [PII, alpha-maltosyl trehalose], the “DE (reducing power)” value in data set [1] was determined as 0.35.

On to `OC[C@H]1O[C@H](O[C@H]2O[C@H](CO)[C@@H](O[C@H]3O[C@H](CO)[C@@H](O[C@H]4O[C@H](CO)[C@@H](O[C@H]5O[C@H](CO)[C@@H](O)[C@H](O)[C@H]5O)[C@H](O)[C@H]4O)[C@H](O)[C@H]3O)[C@H](O)[C@H]2O)[C@H](O)[C@@H](O)[C@@H]1O` [PIII, alpha-maltotriosyl trehalose], for which, in data set [1], the “DE (reducing power)” value is listed as 0.10.

Consider `OC[C@H]1O[C@H](O[C@H]2O[C@H](CO)[C@@H](O[C@H]3O[C@H](CO)[C@@H](O[C@H]4O[C@H](CO)[C@@H](O[C@H]5O[C@H](CO)[C@@H](O[C@H]6O[C@H](CO)[C@@H](O)[C@H](O)[C@H]6O)[C@H](O)[C@H]5O)[C@H](O)[C@H]4O)[C@H](O)[C@H]3O)[C@H](O)[C@H]2O)[C@H](O)[C@@H](O)[C@@H]1O` [PIV, alpha-maltotetraosyl trehalose], for which the “DE (reducing power)” value in data set [1] turned out to be 0.27.

With `OC[C@H]1O[C@H](O[C@H]2O[C@H](CO)[C@@H](O[C@H]3O[C@H](CO)[C@@H](O[C@H]4O[C@H](CO)[C@@H](O[C@H]5O[C@H](CO)[C@@H](O[C@H]6O[C@H](CO)[C@@H](O[C@H]7O[C@H](CO)[C@@H](O)[C@H](O)[C@H]7O)[C@H](O)[C@H]6O)[C@H](O)[C@H]5O)[C@H](O)[C@H]4O)[C@H](O)[C@H]3O)[C@H](O)[C@H]2O)[C@H](O)[C@@H](O)[C@@H]1O` [PV, alpha-maltopentaosyl trehalose], the “DE (reducing power)” value in data set [1] worked out at 0.23.

Molecule `OC[C@H]1O[C@H](O[C@H]2[C@H](O)[C@@H](O)[C@@H](O[C@H]3O[C@H](CO)[C@@H](O[C@H]4O[C@H](CO)[C@@H](O)[C@H](O)[C@H]4O)[C@H](O)[C@H]3O)O[C@@H]2CO)[C@H](O)[C@@H](O)[C@@H]1O` [maltosyl maltoside, O-alpha-D-glucopyranosyl-(1→4)-alpha-D-glucopyranosyl alpha-D-maltoside] returned an LD50 in data set [2] not below 50000 mg/kg. Moreover, in the data set with mice, the acute toxicity entry is “low intoxicity” and the death entry was “no death was observed”.

As to `OC[C@H]1O[C@H](O[C@H]2[C@H](O)[C@@H](O)[C@@H](O[C@H]3O[C@H](CO)[C@@H](O[C@H]4O[C@H](CO)[C@@H](O[C@H]5O[C@H](CO)[C@@H](O)[C@H](O)[C@H]5O)[C@H](O)[C@H]4O)[C@H](O)[C@H]3O)O[C@@H]2CO)[C@H](O)[C@@H](O)[C@@H]1O` [maltotriosyl maltoside, O-alpha-D-glucopyranosyl-(1→4)-O-alpha-D-glucopyranosyl-(1→4)-alpha-D-glucopyranosyl alpha-D-maltoside], in data set [2], the LD50 is not below 50000 mg/kg. In the data set with mice, the acute toxicity result is reported as “low intoxicity” and the death result is “no death was observed”.

Take `OC[C@H]1O[C@H](O[C@H]2[C@H](O)[C@@H](O)[C@@H](O[C@H]3[C@H](O)[C@@H](O)[C@@H](O[C@H]4O[C@H](CO)[C@@H](O[C@H]5O[C@H](CO)[C@@H](O[C@H]6O[C@H](CO)[C@@H](O)[C@H](O)[C@H]6O)[C@H](O)[C@H]5O)[C@H](O)[C@H]4O)O[C@@H]3CO)O[C@@H]2CO)[C@H](O)[C@@H](O)[C@@H]1O` [maltotriosyl maltotrioside, O-alpha-D-glucopyranosyl-(1→4)-O-alpha-D-glucopyranosyl-(1→4)-alpha-D-glucopyranosyl alpha-D-maltotrioside]: the values for the hygroscopicity result in data set [3] (listed as crystalline alpha-D-maltotriosyl alpha-D-maltotrioside) and in data set [3] (listed as crystalline maltotriosyl maltotrioside) were “very weak hygroscopicity” and “substantially non-hygroscopic”, respectively. This molecule returned an LD50 in data set [2] not below 50000 mg/kg. Moreover, in the data set on mice, the acute toxicity entry was “low intoxicity”. In addition, in the data set on mice, the death entry is recorded as “no death was observed”. Further, the solubility in data set [4] is approximately 910 mg/mL (≈ 918 mM).
